# Reference: patent US8895561B2, “Compounds and methods for treating candidiasis and aspergillus infections” (Cellceutix Corporation, priority 2012, dated 2014)
# Tested on: C. albicans (clinical isolate GDH2346)
# Test: Mouse model of oral candidiasis
# Assay type: in vivo, mice
# Experimental: To examine the activity of Compound 100 in vivo, an oral model of Candida infection was established in C57B1/6 mice. Animals were first treated for 5 days with oral tetracycline to reduce normal oral flora. An infection was initiated in the mice by inoculating a 50 μL suspension of C. albicans onto lightly scored tongues. This led to colonization of the tongues by days 2 to 4 after inoculation as measured by histological analysis and by recovery of viable colonies upon homogenization. Topical treatment of the infections on day 3 with a single 50 μL dose of a 1 mg/mL compound solution in a neutral hydrogel was sufficient to reduce the total colony counts by greater than 10-fold, equivalent to a similar treatment with an equivalent concentration of Nystatin suspension. […] 8-week old male mBD-1(−/−) mice on a C57B1/6 background were pre-treated for 5 days with 2.5 mg/mL oral tetracycline to reduce normal oral flora (n=5 per group; n=4 for nystatin group). Day 0: infection initiated by oral inoculation of a 50 μL suspension of C. albicans (clinical isolate GDH2346 at 5×10^7 cfu/mL) onto a cotton ball after lightly scoring the tongues. Day 3: Single topical administration of test agent (10 mg/mL) applied in 0.05 mL hydrogel. Tissue was harvested 24 hours post-treatment, homogenized, and quantitated by serial dilution and plating.
smiles,measurement,setting,value
NCCSc1cc(SCCN)c(C(F)(F)F)cc1NC(=O)c1cc(C(=O)Nc2cc(C(F)(F)F)c(SCCN)cc2SCCN)ncn1 [Compound 100],reduction of total colony counts,"single 50 μL dose of 1 mg/mL solution in neutral hydrogel, day 3, C57B1/6 mice",greater than 10 fold
same,efficacy relative to Nystatin,"single topical dose 10 mg/mL in 0.05 mL hydrogel on day 3, tongue harvested 24 hours post-treatment",50 fold
same,effect on infected tongue burden,single topical dose 10 mg/mL in hydrogel,nearly sterilized the infected tongue
